This is an account of results in PubChem BioAssay AID2305 (GlaxoSmithKline (GSK), 2010).

For the test, the system named is P. falciparum 3D7 growth, pLDH absorbance. The experiment in a line: P. falciparum 3D7 growth inhibition, dose response, strain 3D7 (AID 2305).

The compound `NC(=O)C1CCN(Cc2ccc(-c3ccc(-c4nc5ccc(C(F)(F)F)cc5[nH]4)s3)cc2)CC1` came in with a 50% inhibitory concentration (IC50) of 540 nM.
The same measure for `COc1cc(Cc2cnc(N)nc2N)c2c(c1OC)OC(C)C=C2` (centres undefined): 1250 nM.
For the compound `Cc1cccc(C(=O)NC(NC(=S)Nc2ccc([N+](=O)[O-])cc2)C(Cl)(Cl)Cl)c1` (centres undefined), the IC50 came out at 740 nM.
The compound `COc1ccc(Nc2nc(NC3CCCC3)cc(-c3ccc(OC)cc3)n2)cc1` registered an IC50 of 1030 nM.
The same measure for `ON=C1CCc2cc(-c3nc(-c4ccc(OCCN5CCCCC5)cc4)[nH]c3-c3ccncc3)ccc21`: 800 nM; for `Clc1cc(Cl)c2cc(CNCCCNc3ccc4ccccc4n3)[nH]c2c1`: 340 nM.
Consider `COc1ccc(C2CC(c3ccccc3O)=NN2C(=O)c2ccco2)cc1OC` (centres undefined), for which the IC50 worked out at 950 nM.
The compound `COc1cc(Nc2nccc(N3CCC(NC(=O)c4cccc(C#N)c4)C3)n2)cc(OC)c1OC` (centres undefined) returned an IC50 of 990 nM.
Next, `C[C@@H](N)C#Cc1cc2c(Nc3ccc(OCc4cccc(F)c4)c(Cl)c3)ncnc2s1`: 1060 nM; `COc1ccc(CCc2ccc(-c3c(C)[nH]c(C)c(Cl)c3=O)cc2)cc1`: 20 nM.
Next, `COc1cc(C(=O)Nc2cccc(-c3nc4ccccc4[nH]3)c2)cc(OC)c1OC`: 720 nM; `O=C(Nc1ccc(Oc2ccccc2)cc1)N1CCC(CN2CCC(c3c[nH]c4ccccc34)CC2)CC1`: 610 nM.
For `NC1=NC2(CCCCC2)N(OCCCCCCc2ccccc2)C(N)=N1`, the half-maximal inhibitory concentration (IC50) was 350 nM.
Take `CNC(=O)c1cnc(Nc2ccc3[nH]c(=O)[nH]c3c2)nc1Nc1cccc(OC(C)C)c1`: the IC50 stood at 930 nM.
For the compound `CO/C(=C\C=C\c1cc2cc(Cl)c(Cl)cc2[nH]1)C(=O)NCC(C)(C)CN(C)C`, the IC50 was determined as 1160 nM.
The same measure for `CC(C)c1cc(C(=O)N[C@@H](Cc2ccccc2)[C@H](O)CNC2CCCCC2)cc(N2CCCC2=O)c1`: 120 nM; for `O=C(/C=C/c1ccc(C(F)(F)F)cc1)NCCCCCN1CCN(C(=O)Nc2ccc(F)c(Cl)c2)CC1`: 1210 nM.
`CN1CC=C(C=Cc2c[nH]c3ccccc23)CC1` showed an IC50 of 1340 nM.
The same measure for `CCOc1cc(C(=O)N[C@@H](Cc2ccccc2)[C@H](O)CNCc2cc(OC)cc(OC)c2)cc(N2CCCS2(=O)=O)c1`: 750 nM; for `COc1cccc(C(=O)[C@H]2C[C@@H]2CN(C)CCC(O)c2ccc(Cl)c(Cl)c2)c1` (some centres undefined): 760 nM; for `CC(Oc1ccc(C(=O)c2ccc(F)cc2)cc1)C(=O)N1CCc2ccccc21` (centres undefined): 410 nM.
The compound `Cc1cccc2[nH]c(-c3cccc(-c4cccc(CN5CCCC5CN)c4)c3)nc12` (centres undefined) came in with an IC50 of 770 nM.
Next, `C[C@H]1CN(Cc2cccc(-c3cc(CNC(=O)c4cccc(CN5CCN(CCOc6ccccc6)CC5)c4)ccc3F)c2)CCN1`: 1110 nM.
On to `O=S(=O)(NCCN1CCCC1)c1cccc(-c2cccc(CNCc3ccsc3)c2)c1`, for which the IC50 worked out at 870 nM.
In the case of `COc1ccc(NC(C)C(=O)Nc2ccc(Br)cc2)cc1S(=O)(=O)N1CCCCC1` (centres undefined), the IC50 amounted to 220 nM.
For `CN(Cc1cccc(F)c1)C1CCCN(c2cc(NC(=O)c3ccccc3)ccn2)C1` (centres undefined), the IC50 is 920 nM.
Next, `O=C(Nc1ccc(Cl)cc1)OCCn1nnnc1C(c1ccc(Cl)cc1)N1CCOCC1` (centres undefined): 1180 nM.
`CC(=O)N1Cc2ccccc2C1=O` registered an IC50 of 520 nM.
The compound `Fc1ccc(NC(=S)NCCc2ccccc2)cc1` came in with a concentration for half-maximal inhibition (IC50) of 780 nM.
As to `Cc1noc(C)c1-c1cccc(CNCc2cccc(-c3ccc(-c4nc5c(C)cccc5[nH]4)cc3)c2)c1`, the half-maximal inhibitory concentration (IC50) worked out at 190 nM.
The same measure for `Cc1cccc2[nH]c(-c3cccc(-c4cccc(NC(=O)CNc5ccc(C(N)=O)cc5)c4)c3)nc12`: 280 nM.
For `COc1cc2ncnc(Nc3ccc(OCc4ccccc4)c(OCc4ccccc4)c3)c2cc1OC`, the IC50 was found to be 740 nM.
For the compound `CN1CCC(Oc2ccc(NC(=O)c3ccc4c(=O)n(Cc5ccccc5)cnc4c3)cc2Cl)CC1`, the half-maximal inhibitory concentration (IC50) is 950 nM.
The same measure for `CCc1c(CCNC/C=C/C=C/CNCCc2ccc(OC)c(OC)c2CC)ccc(OC)c1OC`: 970 nM; for `COc1ccc(-n2nc(C(=O)NCCC3=CCCCC3)c3ccccc3c2=O)cc1`: 680 nM.
With `NC1CCN(Cc2ccc(-c3ccc(-c4nc5ccccc5[nH]4)cc3)cc2)C1` (centres undefined), the IC50 is 150 nM.
Next, `Cc1nc2nc(N)nc(N)c2c(C)c1Cc1ccc(C#N)cc1`: 540 nM; `CN(C)Cc1cccc(-c2ccc(NC(=O)c3ccc4c(=O)n(Cc5ccoc5)cnc4c3)cc2)c1`: 770 nM; `CC(C)(C)c1ccc(CN(C[C@@H](O)CNS(=O)(=O)c2cc(Cl)cc(Cl)c2)C(C)(C)C)cc1`: 930 nM.
The same measure for `CCCCN1CCN(CCCNc2c3ccccc3nc3ccccc23)CC1`: 510 nM; for `c1ccc(CNCc2cccc(-c3ccc(-c4nc5ccccc5[nH]4)cc3)c2)cc1`: 820 nM; for `CCOC(=O)c1[nH]c(-c2cccnc2)nc1NC(=S)NCc1ccccc1`: 710 nM.
Next, `Cc1[nH]c(C)c(-c2ccc(/C=C/c3ccccn3)cc2)c(=O)c1Cl`: 520 nM.
On to `CCC(CC)N1CCN(CC(=O)Nc2ccc([N+](=O)[O-])cc2C(=O)Nc2cccc(OC)c2)CC1`, for which the IC50 amounted to 870 nM.
Compound `COc1cc2nc(Cl)nc(Nc3ccncc3)c2cc1OC` gave an IC50 of 1210 nM.
`COC(=O)c1ccc(CC(C)NCC(O)c2ccc(C(O)CNC(C)Cc3ccc(C(=O)OC)cc3)cc2)cc1` (centres undefined) yielded an IC50 of 1030 nM.
The compound `CCCNCc1c(O)ccc2c(CNCCC)c(O)ccc12` showed an IC50 of 600 nM.
For the compound `CN1CCN(c2ccnc3ccc(NC(=O)Nc4cccc5c(C#N)cccc45)cc23)CC1`, the IC50 is 1050 nM.
The same measure for `COc1ccc2nccc(N3C[C@H]4C[C@@H]3CN4CCNCc3ccc4c(n3)NC(=O)CS4)c2n1`: 970 nM; for `OC(CN1c2ccccc2Sc2ccccc21)CN(C1CCCCC1)C1CCCCC1` (centres undefined): 650 nM.
On to `O=C(Nc1ccccc1-c1nc2ccccc2s1)C(Cl)(Cl)Cl`, for which the IC50 worked out at 640 nM.
In the case of `CCc1cc(Br)c(CNCCCNc2cc(=O)c3ccccc3[nH]2)s1`, the IC50 came to 950 nM.
Next, `Cc1cc(NN=Cc2ccccc2[N+](=O)[O-])c2ccccc2n1`: 780 nM; `Cc1cc(-c2cnc(N)c(-c3ccc(N4CCN(C)CC4)nc3)c2)cc(C)c1O`: 1400 nM; `CC(C)c1sc(N2CCCCC2)nc1C(=O)Nc1ccc(F)cc1C(F)(F)F`: 240 nM.
The same measure for `c1ccc(CNCc2ccc(-c3ccc(-c4nc5ccccc5[nH]4)cc3)cc2)cc1`: 340 nM; for `O=C(Nc1ccc(N2CCCN(Cc3cccc(F)c3)CC2)cc1)c1ccc(F)cc1`: 840 nM.
The same measure for `O=C(NC1CCC(CN2CCC(c3c[nH]c4ccccc34)CC2)CC1)[C@H]1Cc2ccccc2CN1` (some centres undefined): 950 nM; for `Cc1[nH]c(C)c(-c2ccc(-c3cccc(Cl)c3)nc2)c(=O)c1Cl`: 190 nM.
As for `O=C(Nc1cc(Cl)ccc1-n1cncn1)C1(c2ccccc2)CC1`, the half-maximal inhibitory concentration (IC50) was found to be 450 nM.
In turn, `O=C(Nc1cccc(-c2cccc(-c3nc4ccc(C(F)(F)F)cc4[nH]3)c2)c1)c1cccnc1Cl` came in with an IC50 of 660 nM.
`CO/C(=C\C=C\c1cc2cc(Cl)c(Cl)cc2[nH]1)C(=O)NCCCN(C)CCN(C)c1ccccc1` came in with an IC50 of 830 nM.
On to `CCn1c(Cc2ccccc2)nnc1Sc1ccc([N+](=O)[O-])c(C#N)c1`, for which the 50% inhibitory concentration (IC50) is 1010 nM.
The same measure for `CC(c1cccc(Nc2nccc(-c3c(-c4cccc(NC(=O)c5c(F)cccc5F)c4)nn4ccccc34)n2)c1)S(C)(=O)=O` (centres undefined): 60 nM.
Next, `FC(F)(F)c1cccc(C=NNc2nc3ccccc3[nH]2)c1`: 150 nM.
As for `CC(=O)Nc1ccc(C(=O)Nc2cccc(-c3cccc(-c4nc5ccccc5[nH]4)c3)c2)cn1`, the concentration for half-maximal inhibition (IC50) stood at 200 nM.
Next, `COc1ccccc1C1CC(c2ccccc2)=NN1C(=O)c1ccccc1` (centres undefined): 300 nM; `CCOC(=O)c1[nH]c2cc(Cl)cc(Cl)c2c1/C=C/C(=O)Nc1ccc(-c2cnc(NC(C)=O)[nH]2)cc1`: 1020 nM.
Turning to `CC(=O)c1cc(N2CCCC2)ccc1N`, the IC50 was found to be 20 nM.
With `Cn1cncc1-c1ccc2ncnc(Nc3ccc(OCc4ccccc4)cc3)c2c1`, the IC50 came out at 1340 nM.
Next, `O=C(NC1CCN(CCCOc2ccnc3cc(Cl)ccc23)C1)c1ccc(Br)cc1` (centres undefined): 1020 nM; `O=C(/C=C/c1ccc(Cl)c(Cl)c1)N1CCC(CN2CCC(c3c[nH]c4cc5c(cc34)OCO5)CC2)CC1`: 680 nM; `CN1CCN(c2ccnc3ccc(NC(=O)Nc4ccc(-c5ccncc5)c(C#N)c4)cc23)CC1`: 160 nM.
The same measure for `CS(=O)(=O)N(CC(O)Cn1c2ccc(Cl)cc2c2cc(Cl)ccc21)c1ccccc1` (centres undefined): 900 nM; for `Fc1ccc2nc(-c3cccc(-c4ccc(CN5CCN(c6cnccn6)CC5)cc4)c3)[nH]c2c1`: 890 nM; for `COc1ccccc1-c1nc2c(ccc3nc(N)nc(N)c32)[nH]1`: 180 nM.
As for `Cc1cc(-c2ccc3c(c2)CCN(CCC2CCC(NC(=O)/C=C/c4cccc(F)c4)CC2)CC3)on1` (centres undefined), the concentration for half-maximal inhibition (IC50) was determined as 750 nM.
Next, `Cc1cc(=O)c(-c2ccc(S(=O)(=O)c3ccc(Cl)cc3)cc2)c(C)[nH]1`: 880 nM; `COc1cc(-n2c(CN3CCCC3)nc3cc(-c4ccc(Cl)cc4)sc3c2=O)ccc1OCCN1CCCC1`: 1040 nM; `Nc1nc(N)c2c(ccc3nn(Cc4ccccc4)cc32)n1`: 210 nM.
Next, `CCOC(=O)NC1=NC(C)(C)N(OCCCOc2cc(Cl)c(Cl)cc2Cl)C(NC(=O)OCC)=N1`: 30 nM; `COc1cc(Cc2cnc(N)nc2N)cc(OCCCCC#N)c1OC`: 1040 nM; `CCOc1cc2ncnc(Nc3ccc(OCc4c(Cl)cccc4Cl)c(OC)c3)c2cc1OCC`: 1050 nM.
Next, `CN(C)CCN(C)Cc1ccc(-c2ccc3c(Nc4ccc(Oc5ccccc5)cc4)ccnc3c2)o1`: 180 nM; `O=C(/C=C/c1ccc(-c2nc3ccc(Cl)cc3[nH]2)cc1)NCc1cccc(F)c1`: 640 nM; `CC(C)NCC(O)COc1ccc(Cc2ccc(OCC(O)CNC(C)C)cc2)cc1` (centres undefined): 650 nM.
The compound `CC1CCCCC1N(C)C1CCN(CCCNC(=O)C=Cc2ccccc2Cl)CC1` (centres undefined) returned a half-inhibitory concentration (IC50) of 670 nM.
The compound `FC(F)(F)c1ccc(NC(=S)N2CCC(CN3CCC(c4c[nH]c5ccccc45)CC3)CC2)cc1` returned an IC50 of 660 nM.
For `O=C(NCCN1CCOCC1)c1ccc(O)c(-c2cccc(C(F)(F)F)c2)c1`, the IC50 came to 750 nM.

One may read the IC50 as the concentration that gives 50% inhibition. Low readings indicate greater potency in that assay, high ones weaker potency in that assay.
